Results taken from ChEMBL document CHEMBL1201862, “PubChem BioAssay data set” (2004).
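96-well plates; 48 h exposure; 5 concentrations. Endpoints by linear interpolation between flanking doses. Not reached: highest tested concentration assigned. GI50: concentration for 50% inhibition of growth.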 Calls of active or inactive are those of the source. Cut-off read from the data, not from the text of the source: active = GI50 up to about 1.1 µM and inactive = higher.

Tests used:
Assay in all cases: DTP human tumour cell line panel, 48 h
NCI-H460 = test system: NCI-H460
HCT-15 = test system: HCT-15
SK-OV-3 = test system: SK-OV-3
MDA-N = test system: MDA-N
HCT-116 = test system: HCT-116
U-251 = test system: U-251
UACC-62 = test system: UACC-62
Malme-3M = test system: Malme-3M
IGROV-1 = test system: IGROV-1
NCI-H23 = test system: NCI-H23
MOLT-4 = test system: MOLT-4
RPMI-8226 = test system: RPMI-8226
SF-295 = test system: SF-295
COLO 205 = test system: COLO 205
HT-29 = test system: HT-29
SK-MEL-28 = test system: SK-MEL-28
PC-3 = test system: PC-3
SNB-75 = test system: SNB-75
NCI-H522 = test system: NCI-H522
HOP-92 = test system: HOP-92
CCRF-CEM = test system: CCRF-CEM
Hs-578T = test system: Hs-578T
CAKI-1 = test system: CAKI-1
NCI/ADR-RES = test system: NCI/ADR-RES
SK-MEL-5 = test system: SK-MEL-5
OVCAR-3 = test system: OVCAR-3
SK-MEL-2 = test system: SK-MEL-2
KM12 = test system: KM12
HOP-62 = test system: HOP-62
MDA-MB-435 = test system: MDA-MB-435
SR = test system: SR
MDA-MB-231 = test system: MDA-MB-231
OVCAR-8 = test system: OVCAR-8
DU-145 = test system: DU-145
HL-60 = test system: HL-60
A498 = test system: A498
SN12C = test system: SN12C
T47D = test system: T47D
M14 = test system: M14
HCC 2998 = test system: HCC 2998
A549 = test system: A549
UACC-257 = test system: UACC-257
786-0 = test system: 786-0
EKVX = test system: EKVX
LOX IMVI = test system: LOX IMVI
RXF 393 = test system: RXF 393
MCF7 = test system: MCF7
SF-268 = test system: SF-268
TK-10 = test system: TK-10
SW-620 = test system: SW-620
K562 = test system: K562
OVCAR-5 = test system: OVCAR-5
SNB-19 = test system: SNB-19
UO-31 = test system: UO-31
NCI-H226 = test system: NCI-H226
OVCAR-4 = test system: OVCAR-4
SF-539 = test system: SF-539
ACHN = test system: ACHN

S=C(/C=C1\SC(=N\c2ccccc2)/C(=N/c2ccccc2)N1c1ccccc1)Nc1ccccc1
GI50 (NCI-H460): > 100 µM (inactive) | GI50 (HCT-15): > 100 µM | GI50 (SK-OV-3): 67.3 µM (inactive) | GI50 (MDA-N): > 100 µM (inactive) | GI50 (HCT-116): > 100 µM (inactive) | GI50 (U-251): > 100 µM (inactive) | GI50 (UACC-62): 51.6 µM (inactive) | GI50 (Malme-3M): > 100 µM (inactive) | GI50 (IGROV-1): > 100 µM (inactive) | GI50 (NCI-H23): > 100 µM (inactive) | GI50 (MOLT-4): 15.2 µM (inactive) | GI50 (RPMI-8226): > 100 µM (inactive) | GI50 (SF-295): > 100 µM (inactive) | GI50 (COLO 205): > 100 µM (inactive) | GI50 (HT-29): > 100 µM (inactive) | GI50 (SK-MEL-28): > 100 µM (inactive) | GI50 (PC-3): > 100 µM (inactive) | GI50 (SNB-75): > 100 µM (inactive) | GI50 (NCI-H522): > 100 µM (inactive) | GI50 (HOP-92): > 100 µM (inactive) | GI50 (CCRF-CEM): 3.66 µM (inactive) | GI50 (Hs-578T): > 100 µM (inactive) | GI50 (CAKI-1): > 100 µM (inactive) | GI50 (NCI/ADR-RES): > 100 µM (inactive) | GI50 (SK-MEL-5): > 100 µM (inactive) | GI50 (OVCAR-3): > 100 µM (inactive) | GI50 (SK-MEL-2): > 100 µM (inactive) | GI50 (KM12): > 100 µM (inactive) | GI50 (HOP-62): > 100 µM (inactive) | GI50 (MDA-MB-435): > 100 µM (inactive) | GI50 (SR): > 100 µM (inactive) | GI50 (MDA-MB-231): > 100 µM (inactive) | GI50 (OVCAR-8): > 100 µM (inactive) | GI50 (DU-145): > 100 µM (inactive) | GI50 (HL-60): > 100 µM (inactive) | GI50 (A498): > 100 µM (inactive) | GI50 (SN12C): > 100 µM (inactive) | GI50 (T47D): > 100 µM (inactive) | GI50 (M14): > 100 µM (inactive)

C/C(=C\CCC1=CC(=O)OC1)CCC1C2C(=O)CC(C)[C@@]3(C)CC[C@]1(C)[C@@]23C (stereo partly specified)
GI50 (HCT-15): > 10 µM | GI50 (SK-OV-3): > 10 µM (inactive) | GI50 (HCC 2998): > 10 µM (inactive) | GI50 (MDA-N): > 10 µM (inactive) | GI50 (UACC-62): > 10 µM (inactive) | GI50 (A549): > 10 µM (inactive) | GI50 (UACC-257): > 10 µM (inactive) | GI50 (786-0): > 10 µM (inactive) | GI50 (Malme-3M): > 10 µM (inactive) | GI50 (IGROV-1): > 10 µM (inactive) | GI50 (NCI-H23): > 10 µM (inactive) | GI50 (EKVX): > 10 µM (inactive) | GI50 (MOLT-4): > 10 µM (inactive) | GI50 (RPMI-8226): > 10 µM (inactive) | GI50 (SF-295): > 10 µM (inactive) | GI50 (COLO 205): > 10 µM (inactive) | GI50 (HT-29): > 10 µM (inactive) | GI50 (LOX IMVI): > 10 µM (inactive) | GI50 (SK-MEL-28): > 10 µM (inactive) | GI50 (PC-3): > 10 µM (inactive) | GI50 (SNB-75): > 10 µM (inactive) | GI50 (RXF 393): > 10 µM (inactive) | GI50 (CCRF-CEM): > 10 µM (inactive) | GI50 (CAKI-1): > 10 µM (inactive) | GI50 (MCF7): > 10 µM (inactive) | GI50 (SK-MEL-5): > 10 µM (inactive) | GI50 (SF-268): > 10 µM (inactive) | GI50 (KM12): > 10 µM (inactive) | GI50 (HOP-62): > 10 µM (inactive) | GI50 (SR): 6.62 µM (inactive) | GI50 (MDA-MB-231): > 10 µM (inactive) | GI50 (OVCAR-8): > 10 µM (inactive) | GI50 (DU-145): > 10 µM (inactive) | GI50 (TK-10): > 10 µM (inactive) | GI50 (HL-60): 5.85 µM (inactive) | GI50 (SN12C): > 10 µM (inactive) | GI50 (SW-620): > 10 µM (inactive) | GI50 (T47D): > 10 µM (inactive) | GI50 (M14): > 10 µM (inactive) | GI50 (K562): 9.44 µM (inactive)

CCN(CC)CC1CCCCN1CC(=O)N1c2ccccc2C(=O)Nc2cccnc21 (stereo unspecified) [OTENZEPAD]
GI50 (NCI-H460): 59.3 µM (inactive) | GI50 (HCT-15): 38.6 µM | GI50 (SK-OV-3): > 100 µM (inactive) | GI50 (HCC 2998): > 100 µM (inactive) | GI50 (MDA-N): 66.2 µM (inactive) | GI50 (HCT-116): 12.2 µM (inactive) | GI50 (U-251): 60.5 µM (inactive) | GI50 (UACC-62): 91.4 µM (inactive) | GI50 (OVCAR-5): 83.2 µM (inactive) | GI50 (A549): 17 µM (inactive) | GI50 (UACC-257): 38.1 µM (inactive) | GI50 (786-0): 35.4 µM (inactive) | GI50 (Malme-3M): > 100 µM (inactive) | GI50 (IGROV-1): > 100 µM (inactive) | GI50 (NCI-H23): 52 µM (inactive) | GI50 (EKVX): > 100 µM (inactive) | GI50 (MOLT-4): 21 µM (inactive) | GI50 (RPMI-8226): 35.6 µM (inactive) | GI50 (SF-295): > 100 µM (inactive) | GI50 (SNB-19): > 100 µM (inactive) | GI50 (COLO 205): 23.2 µM (inactive) | GI50 (HT-29): 21.8 µM (inactive) | GI50 (UO-31): 1.97 µM (inactive) | GI50 (LOX IMVI): 18.3 µM (inactive) | GI50 (SK-MEL-28): > 100 µM (inactive) | GI50 (PC-3): 36.8 µM (inactive) | GI50 (SNB-75): 99.1 µM (inactive) | GI50 (RXF 393): > 100 µM (inactive) | GI50 (NCI-H522): > 100 µM (inactive) | GI50 (HOP-92): > 100 µM (inactive) | GI50 (CCRF-CEM): 19 µM (inactive) | GI50 (Hs-578T): 93.1 µM (inactive) | GI50 (NCI-H226): 41 µM (inactive) | GI50 (CAKI-1): > 100 µM (inactive) | GI50 (MCF7): 27.9 µM (inactive) | GI50 (NCI/ADR-RES): 20.8 µM (inactive) | GI50 (SK-MEL-5): > 100 µM (inactive) | GI50 (SF-268): 59.2 µM (inactive) | GI50 (OVCAR-3): > 100 µM (inactive) | GI50 (SK-MEL-2): > 100 µM (inactive) | GI50 (KM12): 66.7 µM (inactive) | GI50 (HOP-62): 34.7 µM (inactive) | GI50 (MDA-MB-435): 63 µM (inactive) | GI50 (SR): 28.1 µM (inactive) | GI50 (MDA-MB-231): 32.1 µM (inactive) | GI50 (OVCAR-8): 45.4 µM (inactive) | GI50 (OVCAR-4): 38.9 µM (inactive) | GI50 (DU-145): > 100 µM (inactive) | GI50 (TK-10): > 100 µM (inactive) | GI50 (HL-60): 17.4 µM (inactive) | GI50 (A498): > 100 µM (inactive) | GI50 (SF-539): 40.6 µM (inactive) | GI50 (SN12C): 50.9 µM (inactive) | GI50 (SW-620): 36.7 µM (inactive) | GI50 (ACHN): 56 µM (inactive) | GI50 (T47D): > 100 µM (inactive) | GI50 (M14): 68.9 µM (inactive)

O=c1c2ccccc2nc2n1CCc1c-2[nH]c2ccccc12 [RUTAECARPINE]
GI50 (HCT-15): > 10 µM | GI50 (SK-OV-3): 19.4 µM (inactive) | GI50 (MDA-N): 15.2 µM (inactive) | GI50 (HCT-116): 17.5 µM (inactive) | GI50 (U-251): 15.3 µM (inactive) | GI50 (OVCAR-5): 17.4 µM (inactive) | GI50 (Malme-3M): 28.8 µM (inactive) | GI50 (IGROV-1): 19.8 µM (inactive) | GI50 (NCI-H23): 17.8 µM (inactive) | GI50 (EKVX): 20.7 µM (inactive) | GI50 (MOLT-4): 19.9 µM (inactive) | GI50 (RPMI-8226): 15 µM (inactive) | GI50 (SF-295): 14.1 µM (inactive) | GI50 (SNB-19): 15.8 µM (inactive) | GI50 (COLO 205): 21.8 µM (inactive) | GI50 (UO-31): 14.9 µM (inactive) | GI50 (SK-MEL-28): 25.2 µM (inactive) | GI50 (PC-3): 22.2 µM (inactive) | GI50 (SNB-75): 18.9 µM (inactive) | GI50 (RXF 393): 18.8 µM (inactive) | GI50 (HOP-92): 15.6 µM (inactive) | GI50 (CAKI-1): 9.2 µM (inactive) | GI50 (NCI/ADR-RES): 19.5 µM (inactive) | GI50 (SK-MEL-5): 14.7 µM (inactive) | GI50 (SF-268): 26.8 µM (inactive) | GI50 (KM12): > 10 µM (inactive) | GI50 (SR): 24.4 µM (inactive) | GI50 (OVCAR-8): 26.2 µM (inactive) | GI50 (DU-145): 17.4 µM (inactive) | GI50 (TK-10): 29.6 µM (inactive) | GI50 (HL-60): 24.2 µM (inactive) | GI50 (SW-620): 18.6 µM (inactive) | GI50 (T47D): 15.7 µM (inactive) | GI50 (M14): 17.1 µM (inactive) | GI50 (K562): 25.2 µM (inactive)
